In patent US20080292688A1, “Liposome and preparation method of the same” (Industrial Technology Research Institute, priority 2003, published 2008):
Converted amounts (≈) assume the structure as drawn.

Test: physchem
Conditions: Solubility of RA
Experimental: Therefore, TPGS is added with ethanol to increase the solubility of the hydrophobic drug in according to the present invention.

- solubility (aqueous buffer): < 0.1 µg/mL
- solubility (saline or isotonic): 4 µg/mL (≈ 13.3 µM)
SMILES: CC1=C(/C=C/C(C)=C/C=C/C(C)=C/C(=O)O)C(C)(C)CCC1 [RA, All-Trans Retinoic Acid]
